From patent publication US10676446B2, “Bicyclic quinazolinone derivatives” (Hoffmann-La Roche Inc., priority 2015, dated 2020)

Biological target: human ATX (autotaxin, ENPP2), His-tagged (Homo sapiens (Human), UniProt Q13822)
Assay: Human ATX enzyme inhibition assay (fluorescence quenching, MR121 substrate)
Format: biochemical
Settings: 30 nM ATX, 1 μM MR121 substrate, 30° C., pH 8.0
Procedure: Human ATX Enzyme Inhibition Assay
ATX inhibition was measured by a fluorescence quenching assay using a specifically labeled substrate analogue (MR121 substrate). To obtain this MR121 substrate, BOC and TBS protected 6-amino-hexanoic acid (R)-3-({2-[3-(2-{2-[2-(2-amino-ethoxy)-ethoxy]-ethoxy}-ethoxy)-propionylamino]-ethoxy}-hydroxy-phosphoryloxy)-2-hydroxy-propyl ester (Ferguson et al., Org. Lett. 2006, 8, 2023) was labeled with MR121 fluorophore [CAS RN 185308-24-1], 1-(3-carboxypropyl)-11-ethyl-1,2,3,4,8,9,10,11-octahydro-dipyrido[3,2-b:2′,3′-i]phenoxazin-13-ium) on the free amine of the ethanolamine side and then, after deprotection, subsequently with tryptophan on the side of the aminohexanoic acid.
Assay working solutions were made as follows:
Assay buffer (50 mM Tris-HCl, 140 mM NaCl, 5 mM KCl, 1 mM CaCl2, 1 mM MgCl2, 0.01% Triton-X-100, pH 8.0;
ATX solution: ATX (human His-tagged) stock solution (1.08 mg/mL in 20 mM bicine, pH 8.5, 0.15 M NaCl, 10% glycerol, 0.3% CHAPS, 0.02% NaN3), diluted to 1.4-2.5× final concentration in assay buffer;
MR121 substrate solution: MR121 substrate stock solution (800 μM MR121 substrate in DMSO), diluted to 2-5× final concentration in assay buffer.
Test compounds (10 mM stock in DMSO, 8 μL) were obtained in 384 well sample plates (Corning Costar #3655) and diluted with 8 μL DMSO. Row-wise serial dilutions were made by transferring 8 μL cpd solution to the next row up to row O. The compound and control solutions were mixed five times and 2 μL were transferred to 384 well assay plates (Corning Costar #3702). Then, 15 μL of 41.7 nM ATX solution was added (30 nM final concentration), mixed five times and then incubated for 15 minutes at 30° C. 10 μL of MR121 substrate solution was added (1 μM final concentration), mixed 30 times and then incubated for 15 minutes at 30° C.

Row | SMILES | IC50
1 | CN(Cc1ccc(Cl)c(Cl)c1)C(=O)Cn1cnc2ccc(N3CCN(CC4COC4)CC3)cc2c1=O [Example 106] | 0.132 µM
2 | CC(=O)N1CCN(c2ccc3ncn(CC(=O)NCc4ccc(Cl)c(OC(F)(F)F)c4)c(=O)c3c2)CC1 [Example 38] | 0.004 µM
3 | CC(C)[C@@H](O)C(=O)N1CCC(c2ccc3ncn(CC(=O)N(C)Cc4ccc(C#N)c(Cl)c4)c(=O)c3c2)CC1 [Example 157] | 0.01 µM
4 | CC(=O)N1CCN(c2ccc3ncn(CC(=O)NCc4ccc(C#N)cc4Cl)c(=O)c3c2)CC1 [Example 29] | 0.175 µM
5 | O=C(Cn1cnc2ccc(N3CCN(Cc4ncc[nH]4)CC3)cc2c1=O)NCc1ccc(Cl)c(Cl)c1 [Example 100] | 0.204 µM
6 | CC(=O)N1CCN(c2ccc3ncn(CC(=O)N(Cc4ccc(Cl)c(Cl)c4)C(C)C)c(=O)c3c2)CC1 [Example 117, 2-[6-(4-Acetylpiperazin-1-yl)-4-oxoquinazolin-3-yl]-N-[(3,4-dichlorophenyl)methyl]-N-propan-2-ylacetamide] | 0.016 µM
7 | CC(=O)N1CCC(c2ccc3ncn(CC(=O)N(C)Cc4ccc(Cl)c(C#N)c4)c(=O)c3c2)CC1 [Example 126] | 0.012 µM
8 | CC(=O)N1CC(C(=O)N2CCN(c3ccc4ncn(CC(=O)N(C)Cc5ccc(Cl)c(Cl)c5)c(=O)c4c3)CC2)C1 [Example 81] | 0.073 µM
9 | CN(Cc1ccc(Cl)c(Cl)c1)C(=O)Cn1cnc2ccc(N3CCN(S(=O)(=O)C4CC4)CC3)cc2c1=O [Example 91] | 0.03 µM
10 | CC(=O)N1CC2CC1CC2c1ccc2ncn(CC(=O)NCc3ccc(Cl)c(Cl)c3)c(=O)c2c1 (stereo not drawn) [Example 147, 2-[6-[2-Acetyl-2-azabicyclo[2.2.1]heptan-5-yl]-4-oxoquinazolin-3-yl]-N-[(3,4-dichlorophenyl)methyl]acetamide] | 0.14 µM
11 | O=C(Cn1cnc2ccc(N3CCN(CCO)CC3)cc2c1=O)NCc1ccc(Cl)c(Cl)c1 [Example 94, N-[(3,4-Dichlorophenyl)methyl]-2-[6-[4-(2-hydroxyethyl)piperazin-1-yl]-4-oxoquinazolin-3-yl]acetamide] | 0.067 µM
12 | CN(Cc1ccc(Cl)c(Cl)c1)C(=O)Cn1cnc2ccc(C3CCN(C(=O)CS(N)(=O)=O)CC3)cc2c1=O [Example 165, N-[(3,4-Dichlorophenyl)methyl]-N-methyl-2-[4-oxo-6-[1-(2-sulfamoylacetyl)piperidin-4-yl]quinazolin-3-yl]acetamide] | 0.02 µM
13 | CC(=O)N1CCN(c2ccc3ncn(CC(=O)NCc4ccc(F)cc4)c(=O)c3c2)CC1 [Example 14] | 1.47 µM
14 | CC(=O)N1CCN(c2ccc3ncn(CC(=O)NCc4ccc(C#N)c(Cl)c4)c(=O)c3c2)CC1 [Example 25] | 0.016 µM
15 | CC(=O)N1CCC(c2ccc3ncn(CC(=O)NCc4ccc(C(F)(F)F)cc4)c(=O)c3c2)CC1 [Example 123] | 0.067 µM
16 | CC(C)[C@@H](O)C(=O)N1CCC(c2ccc3ncn(CC(=O)N(C)Cc4ccc(Cl)c(Cl)c4)c(=O)c3c2)CC1 [Example 169] | 0.035 µM
17 | CC(=O)N1CCN(c2ccc3ncn(CC(=O)NCc4ccc(C#N)cc4F)c(=O)c3c2)CC1 [Example 30] | 0.139 µM
18 | CC(=O)N1CCC(c2ccc3ncn(CC(=O)NCc4cc(Cl)cc(C(F)(F)F)c4)c(=O)c3c2)CC1 [Example 161, 2-[6-(1-Acetylpiperidin-4-yl)-4-oxoquinazolin-3-yl]-N-[[3-chloro-5-(trifluoromethyl)phenyl]methyl]acetamide] | 0.028 µM
19 | CC(=O)N1CCN(c2ccc3ncn(C4(C(=O)NCc5ccc(Cl)c(Cl)c5)CC4)c(=O)c3c2)CC1 [Example 150, 1-[6-(4-Acetylpiperazin-1-yl)-4-oxoquinazolin-3-yl]-N-[(3,4-dichlorophenyl)methyl]cyclopropane-1-carboxamide] | 0.091 µM
20 | CO[C@@H](C)C(=O)N1CCC(c2ccc3ncn(CC(=O)N(C)Cc4ccc(C#N)c(Cl)c4)c(=O)c3c2)CC1 [Example 159] | 0.001 µM
21 | CN(C)C(=O)CN1CCN(c2ccc3ncn(CC(=O)N(C)Cc4ccc(Cl)c(Cl)c4)c(=O)c3c2)CC1 [Example 108] | 0.055 µM
22 | CN(Cc1ccc(C#N)c(Cl)c1)C(=O)Cn1cnc2ccc(C3CCN(CC4CCOC4)CC3)cc2c1=O (stereo not drawn) [Example 143, N-[(3-Chloro-4-cyanophenyl)methyl]-N-methyl-2-[4-oxo-6-[1-(oxolan-3-ylmethyl)piperidin-4-yl]quinazolin-3-yl]acetamide] | 0.046 µM
23 | O=C(Cn1cnc2ccc(N3CCN(CC4CCOC4)CC3)cc2c1=O)NCc1ccc(Cl)c(Cl)c1 (stereo not drawn) [Example 97] | 0.004 µM
24 | CC(=O)N1CCN(c2ccc3ncn(CC(=O)NCc4ccc([N+](=O)[O-])cc4)c(=O)c3c2)CC1 [Example 21] | 0.052 µM

Row | SMILES | IC50
25 | COCCN1CCN(c2ccc3ncn(CC(=O)N(C)Cc4ccc(Cl)c(Cl)c4)c(=O)c3c2)CC1 [Example 105] | 0.059 µM
26 | CC(=O)N1CCC(c2ccc3ncn(CC(=O)NCc4ccc(Cl)c(Cl)c4)c(=O)c3c2)CC1 [Example 122] | 0.012 µM
27 | CC(=O)N1CCN(c2ccc3ncn(CC(=O)NCc4ccc(OC(F)(F)F)cc4)c(=O)c3c2)CC1 [Example 20] | 0.005 µM
28 | COCC(=O)N1CCN(c2ccc3ncn(CC(=O)NCc4ccc(Cl)c(Cl)c4)c(=O)c3c2)CC1 [Example 61] | 0.016 µM
29 | CC(=O)N1CCN(c2ccc3ncn(CC(=O)NCc4ccc(Cl)c(Cl)c4)c(=O)c3c2)CC1 [Example 22] | 0.091 µM
30 | CC(=O)N1CCN(c2ccc3ncn(CC(=O)NCc4ccc(Cl)cc4)c(=O)c3c2)CC1 [Example 10, 2-[6-(4-Acetylpiperazin-1-yl)-4-oxoquinazolin-3-yl]-N-[(4-chlorophenyl)methyl]acetamide] | 0.096 µM
31 | CN(Cc1ccc(Cl)c(Cl)c1)C(=O)Cn1cnc2ccc(N3CCN(C(=O)C4CCC4)CC3)cc2c1=O [Example 73] | 0.006 µM
32 | O=C(Cn1cnc2ccc(N3CCN(CC(O)CO)CC3)cc2c1=O)NCc1ccc(Cl)c(Cl)c1 (stereo not drawn) [Example 95] | 0.068 µM
33 | CC(=O)N1CCN(c2ccc3ncn(CC(=O)NCc4cccc([N+](=O)[O-])c4)c(=O)c3c2)CC1 [Example 37] | 0.073 µM
34 | CC(=O)N1CCC(c2ccc3ncn(CC(=O)N(C)Cc4ccc(Cl)c(Cl)c4)c(=O)c3c2)CC1 [Example 124] | 0.007 µM
35 | CN(Cc1ccc(Cl)c(Cl)c1)C(=O)Cn1cnc2ccc(C3CCN(C(=O)C(O)CO)CC3)cc2c1=O (stereo not drawn) [Example 177] | 0.036 µM
36 | COCCOCC(=O)N1CCC(c2ccc3ncn(CC(=O)N(C)Cc4ccc(Cl)c(Cl)c4)c(=O)c3c2)CC1 [Example 166] | 0.627 µM
37 | O=C(Cn1cnc2ccc(N3CCN(C(=O)C4CCC4)CC3)cc2c1=O)NCc1ccc(Cl)c(Cl)c1 [Example 63] | 0.011 µM
38 | CC(=O)N1CCN(c2ccc3ncn(CC(=O)NCc4ccc(C#N)cc4)c(=O)c3c2)CC1 [Example 19] | 0.13 µM
39 | CC(=O)N1CCN(c2ccc3ncn(CC(=O)N(C)Cc4cc(Cl)nc(Cl)c4)c(=O)c3c2)CC1 [Example 46] | 0.184 µM
40 | CNC(=O)CCN(Cc1ccc(Cl)c(Cl)c1)C(=O)Cn1cnc2ccc(N3CCN(C(C)=O)CC3)cc2c1=O [Example 55, 3-[[2-[6-(4-Acetylpiperazin-1-yl)-4-oxoquinazolin-3-yl]acetyl]-[(3,4-dichlorophenyl)methyl]amino]-N-methylpropanamide] | 0.038 µM
41 | CN(Cc1ccc(C#N)c(Cl)c1)C(=O)Cn1cnc2ccc(C3CCN(C(=O)C4CCO4)CC3)cc2c1=O (stereo not drawn) [Example 141] | 0.002 µM
42 | CC(=O)N1CCN(c2ccc3ncn(CC(=O)N(C)Cc4ccc(Cl)c(Cl)c4)c(=O)c3c2)CC1 [Example 44] | 0.017 µM
43 | CCC(=O)N1CCN(c2ccc3ncn(CC(=O)N(C)Cc4ccc(Cl)c(Cl)c4)c(=O)c3c2)CC1 [Example 68] | 0.004 µM
44 | CC(C)[C@H](O)C(=O)N1CCC(c2ccc3ncn(CC(=O)N(C)Cc4ccc(Cl)c(Cl)c4)c(=O)c3c2)CC1 [Example 170] | 0.014 µM
45 | CC(=O)N1CCN(c2ccc3ncn(CC(=O)NCc4ccc(C)c(Cl)c4)c(=O)c3c2)CC1 [Example 42] | 0.14 µM
46 | CC(=O)N1CCN(c2ccc3ncn(CC(=O)N(C)Cc4ccc(Cl)c(C#N)c4)c(=O)c3c2)CC1 [Example 57, 2-[6-(4-Acetylpiperazin-1-yl)-4-oxoquinazolin-3-yl]-N-[(4-chloro-3-cyanophenyl)methyl]-N-methylacetamide] | 0.008 µM
47 | CNC(=O)C[C@@H](NC(=O)Cn1cnc2ccc(N3CCN(C(C)=O)CC3)cc2c1=O)c1ccc(Cl)cc1 [Example 1, (3R)-3-[[2-[6-(4-Acetylpiperazin-1-yl)-4-oxoquinazolin-3-yl]acetyl]amino]-3-(4-chlorophenyl)-N-methylpropanamide] | 0.269 µM
48 | CC(C)CC(=O)N1CCN(c2ccc3ncn(CC(=O)NCc4ccc(Cl)c(Cl)c4)c(=O)c3c2)CC1 [Example 59, N-[(3,4-Dichlorophenyl)methyl]-2-[6-[4-(3-methylbutanoyl)piperazin-1-yl]-4-oxoquinazolin-3-yl]acetamide] | 0.07 µM
